Assay results: a melting point compilation (Tetko et al.; mined from patent text by program, amines drawn as free bases though some values may be those of a salt)

First: COc1cccc(OC(=O)c2ncn3c2[C@@H]2CCCN2C(=O)c2c(Cl)cccc2-3)c1
Second: O=c1nc(N2CCCc3ccccc32)sc2ncccc12
The melting point of the first is higher: 184 to 185 °C for the first, 174 to 175 °C for the second.

Compared with `ON=C(Cn1ccnc1)c1ccc(Cl)cc1Cl`, `O=C(C(Cl)=CO)c1ccc(Cl)cc1Cl` is lower in melting point: 205 to 206 °C for the first, 162 °C for the second.

First: C[Si](C)(C)OC1(C#N)CCOc2c(Cl)cc(Cl)cc21 (stereo unspecified)
Second: CC1(C)CC(=O)C(S(=O)Cc2ccc(Cl)cc2)=C(O)C1 (stereo unspecified)
The melting point of the first is lower: 77 to 79 °C for the first, 144 to 145 °C for the second.

First: CCc1ccc(NC(=S)SC)cc1
Second: CCc1ccc(Cc2cc(C(=O)OC)ccc2O)cc1
The melting point of the first is lower: 78 °C for the first, 134 to 137 °C for the second.

Compared with `COc1cccc2sc3cc(=O)ccc-3nc12`, `COc1ccc(C(O)CNCc2cccc(OC)c2OC)cc1OC` (stereo unspecified) is lower in melting point: 206 to 207 °C for the first, 96 to 97 °C for the second.

First: CCCCOC(=O)C(CC(=O)O)NCCCN(C)C (stereo unspecified)
Second: CCCCCS(=O)(=O)NC(=O)CCc1ccc(OCCCOCCOC)cc1Oc1ncc(C(F)(F)F)cc1Cl
The melting point of the first is higher: 154 to 158 °C for the first, 95 to 95.8 °C for the second.

Compared with `O=C(O)COc1cc(F)ccc1C(=O)NCc1ccc(Br)cc1F`, `CC(=O)Nc1cccc(Oc2c(N)cc(C(=O)O)cc2S(N)(=O)=O)c1` is higher in melting point: 143 to 145 °C for the first, 295 °C for the second.

First: O=C(N[C@H](Cc1ccc(C(F)(F)F)cc1)[C@@H](O)c1ccc(F)cc1)c1cc(C(F)(F)F)cc(C(F)(F)F)c1 (racemic)
Second: COc1cc(C(=O)O)cc(OC)c1-c1ccc(C[C@H](NC(=O)c2c(Cl)cccc2Cl)C(=O)O)cc1
The melting point of the first is lower: 150 to 151 °C for the first, 277 to 278 °C for the second.

Compared with `COc1cc2c(cc1OC)C1C(CO)CSC(C=N)N1CC2` (stereo unspecified), `COc1cc(OCCN2CCCC2)cc(-c2nc3cc(OC)cc(OC)c3c(=O)[nH]2)c1` is higher in melting point: 149 to 151 °C for the first, 159 to 160 °C for the second.

Compared with `O=C1NC(=O)C(Nc2ccc(CCNCC(O)c3cccnc3)cc2)S1` (stereo unspecified), `O=C(c1ccccc1)c1ccc(OCCc2c[nH]cn2)cc1` is higher in melting point: 46 to 48 °C for the first, 193 to 194 °C for the second.

Compared with `Nc1nc(Cl)c2ncn(OCC(O)CO)c2n1` (stereo unspecified), `CC(C)NC(=O)NCCc1c2c3c(nc(N)c2nn1C)CCCC3` is higher in melting point: 155 to 158 °C for the first, 237 to 238 °C for the second.

First: CCc1cc(C(=O)c2ccccc2Cl)c(-n2c(C)nnc2CNC(=O)/C=C/c2ccccc2N)s1
Second: CN1C(C(=O)Nc2nc3ccccc3s2)=C(O)c2ccc3ccccc3c2S1(=O)=O
The melting point of the first is lower: 141 to 143 °C for the first, 262 °C for the second.

Compared with `CN1CCC(c2c[nH]c3ccc(Br)cc23)C1` (stereo unspecified), `Cc1oc2cc(C3CC(=O)NC(=O)C3)ccc2c1C` is higher in melting point: 152 to 154 °C for the first, 252 to 254 °C for the second.

First: CC(C)(C)OC(=O)CCc1ccc(Cc2nnn(C(C)(C)C)n2)cc1
Second: CC(C)(C)OC(=O)N(C(=O)OC(C)(C)C)c1c(C#N)csc1C(=O)O
The melting point of the first is lower: 54 to 55 °C for the first, 159 to 160 °C for the second.

Compared with `O=C(Nc1ccc(Oc2ncnc3cc4c(cc23)OCCOCCOCCO4)c(F)c1)c1c[nH]cc(-c2ccc(F)cc2)c1=O`, `CCOC(=O)C=Cc1cc(OCc2ccccc2)ccc1-c1ccc(-c2cccnc2)c(C(F)F)c1` is lower in melting point: 188 to 190 °C for the first, 93 to 95 °C for the second.

First: CN(Cc1ccc2c(c1)Nc1nccnc1S2)C(N)=C[N+](=O)[O-]
Second: COc1cc(CCNC(=O)C(F)(F)F)ccc1[N+](=O)[O-]
The melting point of the first is higher: over 265 °C for the first, 104 °C for the second.

First: C=Cc1c(N=C2NCCN2)cccc1OC
Second: CC(C)C1(C)C(=O)N=C2c3ccccc3C(=O)N21 (stereo unspecified)
The melting point of the first is higher: 126 °C for the first, 98 to 100 °C for the second.

First: CCS(=O)(=O)c1sc(S(N)(=O)=O)cc1C(C)NC(C)=O (stereo unspecified)
Second: COC(=O)c1cncn1C1c2ccccc2CSC1(C)C (stereo unspecified)
The melting point of the first is higher: 213 to 220 °C for the first, 108 to 109 °C for the second.

First: CC(=O)NC[C@H]1CN(c2ccc(N3C[C@H]4CN(C(=O)OCc5ccccc5)C[C@H]4C3)cc2)C(=O)O1
Second: O=C1C=CCC(c2ccccc2)(c2ccccc2)O1
The melting point of the first is lower: 135 to 140 °C for the first, 170 to 173 °C for the second.

First: Nc1c(S)ccc2ccccc12
Second: Cc1ccnc2ccc(C(=O)c3ccc(Cl)cc3)cc12
The melting point of the first is lower: 36 to 37 °C for the first, 114 °C for the second.

`CC(=O)OC1CSC(Oc2ccc(Cl)c(-c3cccnc3)c2)C(OC(C)=O)C1OC(C)=O` (stereo unspecified) showed a melting point of 133 °C.
